According to patent publication US20090170845A1, “USE OF IMIDAZO[2,1-b]-1,3,4-THIADIAZOLE-2-SULFONAMIDE COMPOUNDS TO TREAT NEUROPATHIC PAIN” (AEGERA THERAPEUTICS INC., priority 2006, published 2009):

Key:
Format in all cases: in vivo, rat
[1] = test system: Complete Freund's Adjuvant (CFA) model of hyperalgesia in rats; test: CFA-induced tactile hyperalgesia in rats; details: for activity in CFA model of hyperalgesia: subcutaneous and/or oral delivery
Excerpt: Complete Freund's Adjuvant (CFA) was used to induce an inflammatory response, resulting in hyperalgesia. This model was chosen as a second experimental paradigm to obtain direct evidence for activity of the compounds against pain states because of its link with the induction of aberrant JNK phosphorylation, and evidence that this signaling cascade appears to, at least in part, mediate the pain response in this model (Doya et al., 2005).
Female Sprague Dawley rats were given either vehicle or Compound 150 (10 mg/kg, sc), 155 (1-10 mg/kg, sc), 157 (1-10 mg/kg, sc; 10-40 mg/kg, po) or 158 (10 mg/kg, sc) 6 hours prior to pain testing (compounds 150, 155, 157, and 158 were dissolved in 20% HPCD at 1-10 mg/mL). Compound 157 was also tested under conditions of repeat dosing where it was given at 5-20 mg/kg, po for five consecutive days. Under all treatment conditions, a single injection of CFA (50 uL) was given into the plantar surface of the right hind paw 1 hour prior to pain testing (i.e., 5 hours after the final administration of compound). Immediately after the CFA injection, animals were placed in testing chambers with a wire mesh bottom to habituate. Standard von Frey filaments were used to assess tactile response thresholds. The left, un-injected paw served as a control. Fibers were applied in the manner described by Dixon (1980) using the up-down method. The 50% withdrawal threshold (in grams) was determined for each paw.

[2] = test system: STZ treated diabetic rats; test: Motor nerve conduction velocity (MNCV) in STZ diabetic rats, reversal paradigm, 2 months treatment
Excerpt: (§1) The effects of Compound 150 on nerve conduction (both motor and sensory) and axonal atrophy were examined in diabetic rats. A blinded reversal interventional paradigm was applied to evaluate two related small molecules on established experimental rat diabetic peripheral neuropathy of 2 months duration given over a subsequent 2 months, specifically evaluating motor and sensory conduction and sural axon caliber.
(§2) Male Sprague-Dawley rats (200-300 g) raised on sawdust covered plastic cages in a room with normal light dark timing and fed with standard rat chow were used for this experiment. The protocol was reviewed and approved by the University of Calgary Animal Care Committee adhering to the guidelines of the Canadian Council on Animal Care (CCAC). Diabetes was induced by a single intraperitoneal injection of streptozotocin (STZ) in citrate buffer (65 mg/kg) with age-matched controls given the buffer without STZ. Animals were used for the study if fasting glucose levels 5-7 days later were ≧16.0 mmol/L (One Touch FasTake strips, Johnson and Johnson).
(§3) Treatments were applied after 2 months of hyperglycemia for a duration of 2 months. Motor conduction recordings (1-3) were made prior to intervention then after […]. Sensory conduction utilized the approach of Parry and Kozu involving stimulation of the digital branches of the sciatic nerve and recording from the sciatic nerve at the level of the popliteal fossa with near nerve temperature maintained at 37° C. (4).
(§4) For statistical analysis, we studied mean values with standard errors of the means and compared values in the interventional groups with one way ANOVA or repeated measures ANOVA and post hoc Student's t-tests.

[3] = test system: STZ treated diabetic rats; test: Sural nerve myelinated axon morphometry in STZ diabetic rats; details: 5 of 7 days, 2 months of treatment
Method: as §2
At endpoint (4 months of diabetes, 2 months of treatment) the rats were euthanized and sural nerves harvested for morphometric studies. Sural nerves were fixed in cacodylate buffered glutaraldehyde, dehydrated with alcohols, fixed in osmium tetroxide then embedded in epon to generate one micron sections, as in previous work (5,6). Sections were photographed under oil immersion (1000×) to sample the entire sural nerve. Images were analyzed using Scion image offline to measure axon area for 100 myelinated axons for each sural nerve fascicle. […] For sural nerves with more than one fascicle, each fascicle underwent separate analysis and a mean axon area was calculated for the rat from the fascicles. […]

[4] = test system: STZ treated diabetic rats; test: Sensory nerve conduction velocity (SNCV) in STZ diabetic rats, reversal paradigm, 2 months treatment
Excerpt: as §1, §2, §3, §4

diabetic rats = test: Tactile allodynia (von Frey) in diabetic rats (DN); details: for neuropathic pain in diabetic rats: subcutaneous and/or oral delivery routes; for established neuropathic pain state in diabetic rats: Study 2, 10 mg/kg sc for 14 consecutive days
Method: The effects of compounds 150, 155, 157 and 158 on neuropathic pain responses characterized by tactile allodynia in diabetic rats were examined. A blinded reversal interventional paradigm was applied to evaluate the compounds, with therapy initiated when an aberrant pain state was clearly established. The effects of single or repeat (5 or two days per week) dosing regimen were assessed as described.
Rats (female Sprague Dawley; 250-270 g) were rendered diabetic with the commercially available agent streptozotocin and, were compared to vehicle-treated age matched controls, maintained for up to 6 weeks or more. Standard physiologic parameters (body weight and blood glucose) were recorded before, during and after the study to assess the metabolic status of animals.
Study 1: Both normal and diabetic groups were divided into two groups of 12 and received either vehicle or Compound 150 in 20% HPCD (10 mg/kg, sc) 5 days per week, for two weeks. Standard indices of sensory nerve function (tactile response threshold) were measured at baseline, prior to drug treatments, 48 hours after the 5th dose, and again prior to sacrifice (after the 10th dose) along with the standard physiologic parameters of body weight and plasma glucose.
Study 2: As per Study 1, except animals were treated with either compound 157 or 158 in 20% HPCD (10 mg/kg, sc) for 14 consecutive days.
Study 3: After 1 month of diabetes rats were treated subcutaneously with a single administration of 150, 155, 157, 154, 158 or 160 in 20% HPCD, as indicated; orally by gavage with a single administration of 157, or for 5 consecutive days by oral gavage with 157 and 158 to assess cumulative effects. The effect of the compounds was assessed 6 hours after the single or final administration.
Detailed methods for performing the behavioral tasks can be found in Journal of Neuroscience Methods (1994), 53: 55-63 and Methods in Molecular Medicine, Volume 99: Pain Research: methods and protocols, edited by Z. D. Luo, Humana Press Inc., Totowa, N.J.

[5] = sc, acute single, 6 hours after administration
[6] = po, 5 d loading (5 consecutive days)
[7] = po, 5 d loading (repeated dosing)

O=S(=O)([N-][Na+])c1nn2cc(-c3ccc(-c4cccc(C(F)(F)F)c4)cc3)nc2s1 [Compound 150]
CFA (effect on tactile hyperalgesia) ([1]; sc, acute single): attenuated CFA-induced tactile hyperalgesia and +ve
activity in CFA model of hyperalgesia [1]: active
MNCV v vehicle treated diabetics at 2 months ([2]; 2×/week): significantly better than vehicle treated diabetics
MNCV change from baseline to 2 months (within diabetic groups) ([2]; 2 days per week): identical effects as the drug given 5 days per week
MNCV, diabetics v normals ([2]; 2 days per week): did not restore MNCV to normal
MNCV change from baseline to 2 months (within diabetic groups) ([2]; 5 days per week): significant improvement in MNCV
MNCV v vehicle treated diabetics at 2 months ([2]; 5 days per week): significantly better than vehicle treated diabetics
MNCV, diabetics v normals ([2]; 5 days per week): did not restore MNCV to normal
mean area of all measured sural myelinated axons, diabetics given compound vs. vehicle [3]: rise in mean axonal area
mean axonal area of large (greater than 9 microns squared) myelinated axons, diabetics given compound vs. vehicle [3]: significant increase in mean axonal area
SNCV v vehicle treated diabetics at 2 months ([4]; 5 days/week): significantly better than vehicle treated diabetics
SNCV change from baseline to 2 months (within diabetic groups) ([4]; diabetic rats, 2 months of treatment): did not significantly change from baseline
SNCV, diabetics v normals after 2 months of treatment ([4]; dosed 2 days per week): did not confer similar protection
SNCV, diabetics v normals after 2 months of treatment ([4]; dosed 5 days per week): not significantly different from normals
SNCV v vehicle treated diabetics at 2 months ([4]; twice per week): did not afford similar protection
response to tactile stimulation with multiple dosing (diabetic rats; Study 1, diabetic rats, 10 mg/kg sc 5 days per week for two weeks): consistently responding within the normal range
tactile allodynia six hours after the initial treatment (diabetic rats; Study 1, diabetic rats, 10 mg/kg sc in 20% HPCD): tactile allodynia was reversed
DN, effective dose (diabetic rats; sc, acute single): 10 mg/kg
DN (effect on tactile allodynia in diabetic rats) (diabetic rats; [5]): Effects of single administrations were observed and +ve

O=S(=O)([N-][Na+])c1nn2cc(-c3ccc(Cl)c(Cl)c3Cl)nc2s1 [Compound 154]
DN (effect on tactile allodynia in diabetic rats) (diabetic rats; [5]): Effects of single administrations were observed and +ve
neuropathic pain in diabetic rats (diabetic rats): can reverse neuropathic pain

O=S(=O)([N-][Na+])c1nn2cc(-c3ccc4c(c3)OCCCO4)nc2s1 [Compound 155]
CFA (effect on tactile hyperalgesia) ([1]; sc, acute single): attenuated CFA-induced tactile hyperalgesia and +ve
activity in CFA model of hyperalgesia [1]: active
DN, effective dose (diabetic rats; sc, acute single): ≤ 10 mg/kg
DN (effect on tactile allodynia in diabetic rats) (diabetic rats; [5]): Effects of single administrations were observed and +ve
neuropathic pain in diabetic rats (diabetic rats): can reverse neuropathic pain

COCCOCCOc1ccc(-c2cn3nc(S(=O)(=O)[N-][Na+])sc3n2)cc1 [Compound 157]
CFA (effect on tactile hyperalgesia) ([1]; po, 5 d loading): +ve
CFA, effective dose ([1]; po, 5 d loading): 5 to 10 mg
CFA (effect on tactile hyperalgesia) ([1]; po, acute single): efficacious and +ve
CFA, effective dose ([1]; po, acute single): 20 to 40 mg/kg
CFA, required dose range ([1]; po, daily dosing for 5 consecutive days): 5 to 10 mg/kg
CFA (effect on tactile hyperalgesia) ([1]; sc, acute single): attenuated CFA-induced tactile hyperalgesia and +ve
activity in CFA model of hyperalgesia [1]: active
established neuropathic pain state in diabetic rats (diabetic rats): reversed an established neuropathic pain state
duration of effect on pain after a single administration (diabetic rats; diabetic rats, single administration): 24 h
DN, effective dose (diabetic rats; po, 5 d loading): 5 to 10 mg
DN (effect on tactile allodynia in diabetic rats) (diabetic rats; [6]): equivalent efficacy was observed and +ve
DN, effective dose (diabetic rats; [7]): 5 to 10 mg/kg
DN, effective dose (diabetic rats; po, acute single): 10 to 20 mg/kg
DN (effect on tactile allodynia in diabetic rats) (diabetic rats; po, acute single, 6 hours after administration): Effects of single administrations were observed and +ve
DN, effective dose (diabetic rats; sc, acute single): <10 mg/kg
DN (effect on tactile allodynia in diabetic rats) (diabetic rats; [5]): Effects of single administrations were observed
neuropathic pain in diabetic rats (diabetic rats): can reverse neuropathic pain

CC(C)(C)c1ccc(-c2cn3nc(S(=O)(=O)[N-][Na+])sc3n2)cc1 [Compound 158]
CFA (effect on tactile hyperalgesia) ([1]; sc, acute single): attenuated CFA-induced tactile hyperalgesia and +ve
CFA, effective dose ([1]; sc, acute single): ≤ 10 mg/kg
activity in CFA model of hyperalgesia [1]: active
established neuropathic pain state in diabetic rats (diabetic rats): reversed an established neuropathic pain state
DN (effect on tactile allodynia in diabetic rats) (diabetic rats; [6]): equivalent efficacy was observed and +ve
DN, effective dose (diabetic rats; [7]): 5 to 10 mg/kg
DN, effective dose (diabetic rats; sc, acute single): ≤ 10 mg/kg
DN (effect on tactile allodynia in diabetic rats) (diabetic rats; [5]): Effects of single administrations were observed and +ve
neuropathic pain in diabetic rats (diabetic rats): can reverse neuropathic pain

O=S(=O)([N-][Na+])c1nn2cc(-c3cc(C(F)(F)F)ccc3Cl)nc2s1 [Compound 160]
DN, effective dose (diabetic rats; sc, acute single): 10 mg/kg
DN (effect on tactile allodynia in diabetic rats) (diabetic rats; [5]): Effects of single administrations were observed and +ve
neuropathic pain in diabetic rats (diabetic rats): can reverse neuropathic pain
